# Test results as given in US11766447B2, “3′3′-cyclic dinucleotide analogue comprising a cyclopentanyl modified nucleotide as sting modulator” (INSTITUTE OF ORGANIC CHEMISTRY AND BIOCHEMISTRY ASCR, V.V.I., priority 2019, dated 2023).
# What was measured:
# AQ STING (G230A-R293Q) = target: T1, AQ STING (G230A-R293Q) (Homo sapiens, UniProt Q86WV6, G230A/H232R/R293Q); assay: Differential scanning fluorimetry (DSF) with AQ STING; type: binding; settings: thermal shift vs apoprotein; 150 μM CDN; truncated human AQ STING 0.1 mg/ml
# T1 construct: 8xHis (N, cleaved yes); SUMO (N, cleaved yes); made in house; host or cells: E. coli Rosetta-gami B (DE3)
# Protocol: (§1) Purified PCR products were cleaved with restriction enzymes BamHI (cat. #R0136S, NEB, Ipswich, USA) and NotI (cat. #R0189S, NEB, Ipswich, USA) and cloned into the pSUMO vector linearized with the identical enzymes.
# (§2) DNase I (cat. #D5025, Sigma Aldrich, Czech Republic) and RNase A (cat. #R6513, Sigma Aldrich, Czech Republic) were added (final concentration 50 μg/ml) together with MgCl2 (final concentration 5 mmol·l^−1) to the homogenate and bacteria were lysed using French Press G-M™ High-Pressure Cell Press Homogenizer (1500 psi, 3 cycles). […] The resin was poured into a chromatography column, washed with 50 ml buffer A (50 mmol·l^−1 TrisCl (pH 8.0), 800 mmol·l^−1 NaCl, 3 mmol·l^−1 β-mercaptoethanol; 10% glycerol; 20 mmol·l^−1 imidazol) and 8-His-SUMO tagged STING proteins were eluted with 15 ml buffer A containing 300 mmol·l^−1 imidazole. […] Proteins were concentrated with Amicon® Ultra-15 10 K device (cat. #UFC901008, Merck Millipore, Billerica, USA) and flash frozen in liquid N2.
# (§3) 20 μL solutions of the reaction mixtures were pipetted in triplicates into 96 well optical reaction plates and thermal denaturation of samples were performed on real time PCR cycler (LightCycler® 480 Instrument II—Roche, Basel, Switzerland). The first derivative of the thermal denaturation curves was performed to calculate denaturing temperatures of STING-CDN complexes and STING apoproteins. The thermal shift for each CDN was calculated by subtracting the average denaturing temperature of STING apoprotein from the average denaturing temperature of STING CDN complex.
# WT STING [1] = target: T2, WT STING (Homo sapiens, UniProt Q86WV6, H232R); assay: Digitonin assay using 293T wtSTING-FL reporter cells; type: cell-based; design: host or cells: 293T (ATCC CRL-3216), stably transfected, with 4xISRE firefly luciferase reporter; settings: 293T wtSTING-FL cells, ISRE firefly luciferase; compounds in Digitonin buffer 30 minutes, then 5 hours; 8-point curve
# Source text: Two complementary oligonucleotides of the sequence […] […] […] […] […] The oligonucleotides were mixed in equal molar amounts, hybridized, and cleaved by restriction endonucleases HindIII (cat. #. R0104S, NEB, Ipswich, USA) and BglII (cat. #R0144S, NEB, Ipswich, USA). Ultimately, they were ligated into plasmid pGL4.27 (cat. #E6651, Promega, Madison, USA) linearized with the same enzymes. As result the sequence with four ISRE sites was placed upstream of the minimum promoter of firefly luciferase reporter gene.
# After 5 minutes incubation at room temperature (RT), 250 μL of the mixture was added dropwise to the cells in one well. Cells were incubated 36 hours at 37° C. with 5% CO2, and then detached with 0.05% Trypsin and 0.22 g/L EDTA (both cat. #L0941, Biowest, Riverside, USA).
# Transfected cells were seeded onto poly-D-lysine coated six well plates at density 50,000 cells per 1 cm^2 in DMEM medium with high glucose containing 10% heat inactivated FBS, 30 μg/mL blasticidin (cat. #ant-b1-05, InvivoGen, San Diego, USA), 0.06 mg/ml Penicillin G and 0.1 mg/ml Streptomycin Sulfate (both cat. #. L0018, Biowest, Riverside, USA). The medium was replenished every 3-4 days until visible colonies of cells resistant to blasticidin were formed.
# Blasticidin resistant cells stably expressing WT STING were further transfected with […] plasmid following the same procedure as described above. […] Homogeneous culture of stably double transfected cells was prepared by limiting dilution of cells in 96 well plates and wells with cells were selected that originated from a single cell.
# The medium was removed next day and three fold serial dilutions of compounds in Digitonin buffer containing 50 mmol·l^−1 HEPES (cat. #H3375, Sigma Aldrich, Czech Republic) pH 7.0, 100 mmol·l^−1 KCl, 3 mmol·l^−1 MgCl2, 0.1 mmol·l^−1 DTT (cat. #D0632, Sigma Aldrich, Czech Republic), 85 mmol·l^−1 Sucrose (cat. #S7903, Sigma Aldrich, Czech Republic), 0.2% BSA (cat. #A2153, Sigma Aldrich, Czech Republic), 1 mmol·l^−1 ATP (cat. #A1852, Sigma Aldrich, Czech Republic), 0.1 mmol·l^−1 GTP (cat. #G8877, Sigma Aldrich, Czech Republic), and 10 μg/mL Digitonin A (cat. #D141, Sigma Aldrich, Czech Republic) were added to the cells. The buffer was removed after 30 minutes incubation at 37° C. with 5% CO2, the cells were washed once with 100 μl of cultivation medium, and 100 μl of medium was added to each well. The plates with cells were incubated for 5 hours at 37° C. with 5% CO2, 50 μl of the medium was removed and 30 μl of ONE-Glo™ Luciferase Assay System reagent (cat. #E6120, Promega, Madison, USA) was added to each well. Luminescence was read on Synergy H1 (Biotek, Winooski, USA). GraphPad Prism (La Jolla, USA) was used to calculate the 50% effective concentration ([…] from an 8-point dose-response curve.
# Target sequence in this assay (Q86WV6 whole entry H232R): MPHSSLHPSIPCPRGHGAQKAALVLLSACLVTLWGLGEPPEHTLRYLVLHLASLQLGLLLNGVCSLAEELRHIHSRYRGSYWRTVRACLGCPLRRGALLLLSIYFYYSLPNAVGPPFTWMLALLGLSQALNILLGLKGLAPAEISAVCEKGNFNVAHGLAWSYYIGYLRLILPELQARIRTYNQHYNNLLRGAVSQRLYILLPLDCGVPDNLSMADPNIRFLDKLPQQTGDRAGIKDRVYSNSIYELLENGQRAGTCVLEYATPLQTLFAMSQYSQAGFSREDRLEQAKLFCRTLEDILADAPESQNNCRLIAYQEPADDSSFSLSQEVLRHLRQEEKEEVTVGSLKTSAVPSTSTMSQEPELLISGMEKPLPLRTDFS
# WT STING [2] = target: T2, WT STING; assay: Differential scanning fluorimetry (DSF) with WT STING; type: binding; design: 8xHis (N, cleaved yes); SUMO (N, cleaved yes); made in house; host or cells: E. coli Rosetta-gami B (DE3); settings: thermal shift vs apoprotein; 150 μM CDN; truncated human WT STING 0.1 mg/ml
# Protocol: as §1, §2, §3
# Target sequence in this assay (Q86WV6 140-343 H232R): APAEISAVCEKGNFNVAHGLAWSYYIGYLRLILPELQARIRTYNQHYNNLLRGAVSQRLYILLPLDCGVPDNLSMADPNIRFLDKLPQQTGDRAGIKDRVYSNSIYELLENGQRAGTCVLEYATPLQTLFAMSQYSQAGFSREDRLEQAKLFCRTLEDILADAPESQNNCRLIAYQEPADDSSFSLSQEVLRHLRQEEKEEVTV
# T1 sequence (Q86WV6 140-343 G230A/H232R/R293Q): as the sequence (Q86WV6 140-343 H232R) above, with G91A, R154Q counted along it
ΔTm at 150 µM (AQ STING (G230A-R293Q)) [°C],EC50 (WT STING [1]) [nM],ΔTm at 150 µM (WT STING [2]) [°C],DSF ΔTm (° C.) AQ STING (AQ STING (G230A-R293Q)) [°C],DSF ΔTm (° C.) WT STING (WT STING [2]) [°C],Compound
7.9,3600,2.1,–,–,"Nc1nc2c(ncn2[C@@H]2C[C@@H]3COP(=O)(O)OC4C(O)[C@H](n5cnc6c(N)ncnc65)O[C@@H]4COP(=O)(O)OC3C2O)c(=O)[nH]1 (stereo partly drawn) [Compound 113, 2-amino-9-((2R,3S,3a5,7aR,9R,10S,10aR,14aR)-2-(6-amino-9H-purin-9-yl)-3,5,10,12-tetrahydroxy-5,12-dioxidodecahydro-2H-cyclopenta[d]furo[3,2-j][1,3,7,9]tetraoxa[2,8]diphosphacyclododecin-9-yl)-1,9-dihydro-6H-purin-6-one]"
7.5,1800,1.1,–,–,"Nc1ncnc2c1ncn2[C@H]1CC2OP(=O)(O)OC[C@H]3O[C@@H](n4cnc5c(N)ncnc54)CC3OP(=O)(O)OC[C@H]2C1 (stereo partly drawn) [Compound 126, (2R,3aS,7aR,9R,10aS,14aR)-2,9-bis(6-amino-9H-purin-9-yl)-5,12-dihydroxydecahydro-2H-cyclopenta[d]furo[3,2-j][1,3,7,9]tetraoxa[2,8]diphosphacyclododecine 5,12-dioxide]"
9,400,1.9,–,–,"Nc1nc2c(ncn2[C@@H]2C[C@@H]3COP(=O)(O)OC4C[C@H](n5cnc6c(N)ncnc65)O[C@@H]4COP(=O)(O)OC3C2O)c(=O)[nH]1 (stereo partly drawn) [Compound 106, 2-amino-9-((2R,3aS,7aR,9R,10S,10aR,14aR)-2-(6-amino-9H-purin-9-yl)-5,10,12-trihydroxy-5,12-dioxidodecahydro-2H-cyclopenta[d]furo[3,2-j][1,3,7,9]tetraoxa[2,8]diphosphacyclododecin-9-yl)-1,9-dihydro-6H-purin-6-one]"
–,70,–,13.7,4.1,"Nc1nc2c(ncn2[C@@H]2O[C@@H]3COP(=O)(O)OC4C(O)[C@H](n5cnc6c(N)ncnc65)C[C@@H]4COP(=O)(O)OC3C2F)c(=O)[nH]1 (single isomer, unassigned) [Compound 111]"
–,50,–,11.6,5.3,"Nc1ncnc2c1ncn2[C@@H]1C[C@@H]2COP(=O)(O)OC3C(F)[C@H](n4cnc5c(N)ncnc54)O[C@@H]3COP(=O)(S)OC2C1F (single isomer, unassigned) [Compound 141b]"
4.6,1200,1.1,–,–,"Nc1nc2c(ncn2[C@H]2CC3OP(=O)(O)OC[C@H]4C[C@@H](n5cnc6c(=O)[nH]c(N)nc65)C(O)C4OP(=O)(O)OC[C@H]3C2)c(=O)[nH]1 (stereo partly drawn) [Compound 123, 9,9′-((2R,3S,3aR,7aR,9R,10aS,14aR)-3,5,12-trihydroxy-5,12-dioxidododecahydrodicyclopenta[d,j][1,3,7,9]tetraoxa[2,8]-diphospha-cyclododecine-2,9-diyl)bis(2-amino-1,9-dihydro-6H-purin-6-one)]"
–,3000,–,3.9,0.3,"Nc1ncnc2c1ncn2[C@@H]1C[C@@H]2COP(=O)(O)OC3C(F)[C@H](n4cnc5c(N)ncnc54)O[C@@H]3COP(=O)(S)OC2C1F (single isomer, unassigned) [Compound 141a]"
14,100,6.4,–,–,"Nc1nc2c(ncn2[C@H]2CC3OP(=O)(S)OC[C@H]4O[C@@H](n5cnc6c(N)ncnc65)C(F)C4OP(=O)(S)OC[C@H]3C2)c(=O)[nH]1 (single isomer, unassigned) [Compound 129a]"
9.5,1600,3.5,–,–,"Nc1nc2c(ncn2[C@@H]2C[C@@H]3COP(=O)(O)OC4C(F)[C@H](n5cnc6c(=O)[nH]c(N)nc65)O[C@@H]4COP(=O)(O)OC3C2O)c(=O)[nH]1 (stereo partly drawn) [Compound 122, 9,9′-((2R,3R,3aR,7aR,9R,10S,10aR,14aR)-3-fluoro-5,10,12-trihydroxy-5,12-dioxidodecahydro-2H-cyclopenta[d]furo[3,2-j][1,3,7,9]tetraoxa[2,8]diphosphacyclododecine-2,9-diyl)bis(2-amino-1,9-dihydro-6H-purin-6-one)]"
11.4,200,3.4,–,–,"Nc1ncnc2c1ncn2[C@@H]1O[C@@H]2COP(=O)(O)OC3C(O)[C@H](n4cnc5c(=O)[nH]cnc54)C[C@@H]3COP(=O)(O)OC2C1O (stereo partly drawn) [Compound 104, 9-((2R,3R,3a5,7aR,9R,10S,10aR,14aR)-2-(6-amino-9H-purin-9-yl)-3,5,10,12-tetrahydroxy-5,12-dioxidodecahydro-2H-cyclopenta[d]furo[3,2-j][1,3,7,9]tetraoxa[2,8]diphosphacyclododecin-9-yl)-1,9-dihydro-6H-purin-6-one]"
21.4,10,13.4,–,–,"Nc1nc2c(ncn2[C@@H]2O[C@@H]3COP(=O)(O)O[C@@H]4[C@@H](COP(=O)(O)O[C@H]3[C@H]2F)C[C@@H](n2cnc3c(N)ncnc32)[C@@H]4F)c(=O)[nH]1 [Compound 131, (1R,6R,8R,9R,10R,15R,17R,18S)-8-(2-amino-6-oxo-6,9-dihydro-1H-purin-9-yl)-17-(6-amino-9H-purin-9-yl)-9,18-difluoro-3,12-dihydroxy-2,4,7,11,13-pentaoxa-3λ^5,12λ^5-diphosphatricyclo[13.3.0.0^6,10]octadecane-3,12-dione]"
–,5800,–,7.7,2.6,"Nc1nc2c(ncn2[C@@H]2O[C@@H]3COP(=O)(O)O[C@H]4[C@@H](O)[C@H](n5cnc6c(=O)[nH]c(N)nc65)O[C@@H]4COP(=O)(O)O[C@H]3[C@H]2O)c(=O)[nH]1 [3′3′c-di-GMP, reference compound]"
14.3,40,5.2,–,–,"Nc1nc2c(ncn2[C@@H]2O[C@@H]3COP(=O)(O)OC4C(O)[C@H](n5cnc6c(N)ncnc65)C[C@@H]4COP(=O)(O)OC3C2O)c(=O)[nH]1 (stereo partly drawn) [Compound 108, 2-amino-9-((2R,3R,3aS,7aR,9R,10S,10aR,14aR)-9-(6-amino-9H-purin-9-yl)-3,5,10,12-tetrahydroxy-5,12-dioxidodecahydro-2H-cyclopenta[d]furo[3,2-j][1,3,7,9]tetraox[2,8]diphosphacyclododecin-2-yl)-1,9-dihydro-6H-purin-6-one]"
